Assay results published in patent publication US20060127914A1 (priority 1999, published 2006).

Legend:
[1] = target: T1, α9 alone (homomeric α9 nAChR) (Homo sapiens, UniProt Q9UGM1, N442S); assay: Two electrode voltage clamp recording in Xenopus oocytes injected with α9 alone; assay type: cell-based
T1 construct: expressed in transfected cells; host or cells: Xenopus laevis oocytes injected with cRNA made from cDNA in pSP64T.GL+
Description: (§1) 5 minutes washout time was allowed between each response. The data is corrected for run-up or run-down and expressed as a percentage of the maximum evoked current. Curves have been fitted using the non-linear curve fitting routine of Graph Pad. The fit is constrained to a lower bound of 0 while the upper bound is unconstrained. The correlation coefficients are R^2=0.9999 and 0.9980 for α9 and α9/α10, respectively.
(§2) Xenopus laevis females were purchased from Blades Biological, UK. The animals were maintained and dissected as described in Gould (1994) Membrane Protein and Expression Systems: a User's Guide Portland Press, London. Stage V or VI oocytes were de-folliculated by incubating with 0.2% collagenase (Sigma) in calcium-free Barth's solution on a vibrating platform set at 8 Hz for 2 hours at 18° C. Oocytes were then maintained in normal Barth's solution (containing 160 IU/ml penicillin and 74 IU/ml streptomycin). On the following day oocytes were injected with 1 to 25 ng cRNA using a Drummond Nanoject and left for at least three days before recording. cRNA was synthesised from cDNAs previously subcloned into the pSP64T.GL+ vector using the SP6 Message Machine Kit (Ambion).
(§3) Two electrode voltage clamp recording was carried out using a TURBO TEC-10CD (NPI Electronic GmbH, D-71732 Tamm, Germany). For current recording oocytes were placed in ND-96 Ringer (containing 96 mM NaCl, 1.8 mM CaCl2, 2 mM KCl, 1 mM MgCl2 and 5 mM HEPES (pH=7.4)) and impaled with two electrodes filled with 3 M KCl and 1 to 2 MΩ tip resistance. Recording were made in oocytes in which the membrane potential stabilised to potentials more negative than −20 mV during a 20 minute stabilisation period.
(§4) α10 nAChR function and pharmacology was investigated in Xenopus oocytes using two electrode voltage clamp techniques.

[2] = target: T2, α9/α10 combination (Homo sapiens, UniProt Q9GZZ6+Q9UGM1, N442S); assay: Two electrode voltage clamp recording in Xenopus oocytes injected with α9 plus α10; assay type: cell-based
T2 construct: expressed in transfected cells; host or cells: Xenopus laevis oocytes injected with cRNA made from cDNAs in pSP64T.GL+
Description: as §1, §2, §3, §4

[3] = read-out: IC50 for inhibition of ACh-evoked response

T1 sequence (Q9UGM1 23-479 N442S): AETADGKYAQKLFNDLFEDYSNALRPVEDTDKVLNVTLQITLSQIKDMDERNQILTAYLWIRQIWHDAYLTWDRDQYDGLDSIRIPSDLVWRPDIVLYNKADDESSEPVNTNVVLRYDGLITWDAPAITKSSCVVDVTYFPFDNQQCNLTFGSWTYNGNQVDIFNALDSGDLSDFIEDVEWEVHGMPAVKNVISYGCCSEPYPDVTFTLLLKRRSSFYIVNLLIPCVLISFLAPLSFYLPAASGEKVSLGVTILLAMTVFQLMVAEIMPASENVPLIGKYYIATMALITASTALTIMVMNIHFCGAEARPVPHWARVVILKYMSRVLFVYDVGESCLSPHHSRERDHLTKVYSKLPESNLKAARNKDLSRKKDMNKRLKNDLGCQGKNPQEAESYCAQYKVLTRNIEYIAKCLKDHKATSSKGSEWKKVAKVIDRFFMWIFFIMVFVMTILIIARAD
T2 sequence (Q9GZZ6 25-450): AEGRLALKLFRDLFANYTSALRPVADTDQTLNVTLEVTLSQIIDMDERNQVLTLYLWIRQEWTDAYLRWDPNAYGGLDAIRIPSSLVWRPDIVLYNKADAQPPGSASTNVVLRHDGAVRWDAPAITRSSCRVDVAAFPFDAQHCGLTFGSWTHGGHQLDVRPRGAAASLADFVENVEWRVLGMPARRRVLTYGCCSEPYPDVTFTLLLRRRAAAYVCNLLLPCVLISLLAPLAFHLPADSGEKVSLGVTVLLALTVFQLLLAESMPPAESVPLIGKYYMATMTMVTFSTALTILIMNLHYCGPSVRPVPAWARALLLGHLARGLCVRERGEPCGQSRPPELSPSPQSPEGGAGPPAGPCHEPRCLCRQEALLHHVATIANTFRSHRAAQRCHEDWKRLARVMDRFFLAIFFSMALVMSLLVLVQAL
T2 sequence (Q9UGM1 23-479 N442S): as the sequence (Q9UGM1 23-479 N442S) above

## α-bungarotoxin [α-Btx]
[1]
  Hill coefficient of inhibition curve: −1.25
[1]; [3]
  IC50: 2.7 nM
[2]
  Hill coefficient of inhibition curve: −0.89
[2]; [3]
  IC50: 3.7 nM

## CC(=O)OCC[N+](C)(C)C [ACh, acetylcholine]
[1]; 30 s ACh application compared to 10 s application, α9 alone, N=2
  proportional increase in area-under-the curve for normalised responses: 82%
[2]; 30 s ACh application compared to 10 s application, α9/α10, N=2
  proportional increase in area-under-the curve for normalised responses: 44%
